SMILES strings stand for the structures. Read-outs that look alike come from different tables or passages of the source.

The test system of series [1] is pancreatic cancer Pan02-luc cells. Description: Mouse transplanted pancreatic cancer model, survival. The conditions noted are these: intragastric 500 ug/time/animal every day for 24 days, control 41 days. Type of series: in vivo, C57BL/6j nude mice. The procedure:
The feeding of the mouse model in the drug evaluation follows that: mice are fed and treated in a laminar flow cabinet, with 5 nude mice in each cage, drinking water and feedstuffs are added once every 3 days, and paddings are replaced once a week; a number of mice kept in each cage is no more than 5, the mice in separate cages are kept in groups as far as possible, and the mice should not be kept in a single cage; the animal management must conform to the relevant national standards on animal feeding management, and the behavioral needs of animals should be concerned at the same time to avoid unnecessary stress; the normal physiological and behavioral needs of animals, such as defecation, urination, constant body temperature maintenance, normal activities, posture adjustment and reproduction are met; good ventilation and dry animals are kept; the animals can access to drinking water and food at will, and supplementation, replacement and cleaning operations are easily carried out; a solid and safe environment is provided to avoid accidents of animals, such as escaping or limb trapping in a gap; the animals are avoided from being damaged by sharp edges or protrusions; and the animals are not disturbed during observation. […]

In series [2] the test system is small cell lung cancer cell line H1048. Kind of series: MTT proliferation, small cell lung cancer cell line H1048. Type of series: cell-based. The following applies: read-out: IC50 (μM) of compounds in small cell lung cancer cells, H1048. The procedure, abridged: (§1)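 MTT assay: cells seeded at 2 to 4×10^4 cells/mL, grown 24 h, then exposed to compound for 72 h. MTT added for 4 h, formazan dissolved in DMSO and absorbance read at 570 nm; IC50 taken from the S-shaped concentration-inhibition curve.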

The subject of series [3] is wild-type AB-line zebrafish. The conditions noted are these: 3 dpf to 5 dpf, 35° C.; survival rate>90% and teratogenicity<20%. The procedure:
The zebrafish model is a wild-type AB-line zebrafish from College of Biotechnology and Pharmaceutical Engineering, Nanjing Tech University, and is carried out by a natural mating reproduction method, with 30 zebrafish of 2 dpf in each experimental group. The zebrafish is fed in fish culture water at 28° C. (water quality:200 mg of instant sea salt and CaCO3 are added into 1 L of reverse osmosis water with a conductivity of 480 uS/cm to 510 uS/cm, a pH value of 6.9 to 7.2, and a hardness of 53.7 mg/L to 71.6 mg/L), and the feeding management meets the requirements of international AAALAC certification.
240 3 dpf wild-type AB-line zebrafish were randomly selected in an 8-well plate, with 30 zebrafish in each well, and 3 mL of fish culture water in each well, the cordycepin was diluted according to a maximum lethal dose, dissolved in DMSO, and added into each well according to a concentration gradient (the maximum lethal dose was diluted by 100 times, in which 8 concentration gradient values were taken for the experiment), and meanwhile, a normal control group, a solvent control group G (5% glucose) and a solvent control group D (DMSO) were set. During the experiment, the zebrafish in each group were cultured at 35° C., after the zebrafish were treated to be 5 dpf with a sample to be tested, lethal and developmental malformation conditions of the zebrafish in different doses were investigated respectively, and a maximum tolerance dose (MTD) of the sample to be tested to normal zebrafish was determined under a concentration when survival rate>90% and teratogenicity<20%.

The test system of series [4] is BGC-823 gastric cancer cells. Kind of series: Mouse transplanted gastric cancer model. The conditions noted are these: BGC-823 transplanted mice, intragastric 500 ug/time/animal every day, 18 days; for tumor weight: control 1.73 g. The class given is in vivo, C57BL/6j nude mice. The procedure: The feeding of the mouse model in the drug evaluation follows that: mice are fed and treated in a laminar flow cabinet, with 5 nude mice in each cage, drinking water and feedstuffs are added once every 3 days, and paddings are replaced once a week; a number of mice kept in each cage is no more than 5, the mice in separate cages are kept in groups as far as possible, and the mice should not be kept in a single cage; the animal management must conform to the relevant national standards on animal feeding management, and the behavioral needs of animals should be concerned at the same time to avoid unnecessary stress; the normal physiological and behavioral needs of animals, such as defecation, urination, constant body temperature maintenance, normal activities, posture adjustment and reproduction are met; good ventilation and dry animals are kept; the animals can access to drinking water and food at will, and supplementation, replacement and cleaning operations are easily carried out; a solid and safe environment is provided to avoid accidents of animals, such as escaping or limb trapping in a gap; the animals are avoided from being damaged by sharp edges or protrusions; and the animals are not disturbed during observation.
A mouse transplanted gastric cancer model was established and a drug was evaluated. 2×10^7 BGC-823 gastric cancer cells were suspended in 100 μL of PBS to be inoculated into an anterior chest wall of C57BL/6j nude mice, disinfection was carried out with 75% ethanol, and the most obvious part of apical impulse was touched with hand to inoculate the cells to a left ventricle in a second intercostal space about 3 mm to the left of the sternum. About one week later, when the transplanted tumor reached about 100 mm^3, the mice were randomly divided into five groups, with 10 mice in each group, comprising a control group, a cordycepin group, and compound 16, compound 18 and compound 24 drug groups respectively. The control group was intragastrically administrated with a nutritional agent such as a corn steep liquor and DMSO as a solvent control every day; the cordycepin group was intragastrically administrated with the cordycepin (500 ug/time/animal) every day under configuration with DMSO; and the compound drug groups were intragastrically administrated with the compounds (500 ug/time/animal) every day under configuration with DMSO. The administration was carried out for 18 consecutive days. Changes of gastric tumor sizes in the five groups of mice were observed every two days, the mice were killed after the experiment, blood and corresponding tissue samples were collected, and tumor bodies were immediately photographed and weighed.

Series [5] has as its system small cell lung cancer cell line H446. Kind of series: MTT proliferation, small cell lung cancer cell line H446. The class given is cell-based. The conditions noted are these: read-out: IC50 (μM) of compounds in small cell lung cancer cells, H446. In a few lines:
as §1

In the case of `Nc1ncnc2c1ncn2[C@@H]1O[C@H](CO)C[C@H]1O` [Cordycepin, 3′-deoxyadenosine], the “survival time of the tumor-bearing mice (median survival time)” value in series [1] was determined as 52 days. Besides, the IC50 (in general, the concentration needed to halve the response being measured) in series [2] (Homo sapiens, NCI-H1048, 72 h, MTT, 72 hours, H1048) was over 100 µM; in series [2] (MTT, 72 hours, H1048) it was 172 µM; in series [5] (Homo sapiens, NCI-H446, 72 h, MTT, 72 hours, H446) it was over 100 µM; in series [5] (MTT, 72 hours, H446) it was 123 µM. In series [3], the “Maximum tolerance dose (MTD) in zebrafish model” value is 995 µM. Also, in series [4], the “tumor weight, times lower than that of the control group” value is listed as “about 4 times”. In series [4], this molecule showed a tumor weight of 0.46 g.

For the molecule `CC(C)OC(=O)C(C)NP(=O)(COC[C@@H]1CC(O)[C@H](n2cnc3c(NC(=O)c4ccncc4)ncnc32)O1)Oc1ccccc1` (some centres unmarked) [Compound 24, isopropyl((((4-hydroxy-5-(6-(isonicotinamide)-9H-purin-9-yl)tetrahydrofuran-2-yl)methoxy)methyl)(phenoxy)phosphoryl)alanine ester], the “survival time of the tumor-bearing mice (median survival time)” value in series [1] amounted to 76 days. Also, the IC50 in series [2] (Homo sapiens, NCI-H1048, 72 h) is 24.4 µM; in series [5] (Homo sapiens, NCI-H446, 72 h), 17.2 µM. In addition, the “Maximum tolerance dose (MTD) in zebrafish model” value in series [3] was 5 µM. The “tumor weight, times lower than that of the control group” value in series [4] is given as “about 12 times”. In series [4], this molecule yielded a tumor weight of 0.14 g.

For the origin of these results see patent US12215123B2, “Cordycepin-based derivatized compound with anti-tumor effect” (NANJING TECH UNIVERSITY, priority 2022, dated 2025).
